Experimental data: US20120149766A1, “DIETARY AND PHARMACEUTICAL COMPOSITIONS COMPRISING A SAGE EXTRACT CONTAINING A MIXTURE OF TRICYCLIC […] THEIR DERIVATIVES AND THEIR USES” (DSM IP ASSETS B.V., priority 2006, published 2012)
Like-named read-outs stand apart in the source and are kept apart here.

Tests used:
[1] = tested on: mouse; settings: for Number of marbles covered by sawdust, mean ± s.e.m.: 30-min test
Experimental: Mice (n=15 per treatment group) were individually placed in transparent plastic cages (33×21×18 cm) with 5 cm of sawdust on the floor and 25 marbles (diameter 1 cm) grouped in the centre of the cage. A second, up-turned, cage served as a lid. The number of marbles covered by sawdust (by at least two-thirds) was counted at the end of the 30-min test period. Tests were performed by investigators blind to the drug treatment protocol.
Prior to testing, all test cages and marbles were “impregnated” by leaving 10 naive mice in each cage for 15 minutes.
Sage extract B (30, 100, 300 mg/kg, p.o., 24, 5 and 1 h prior to the test) was thus investigated in the marble burying test to evaluate its potential anxiolytic effects in the mouse. Clobazam, fluoxetine and venlafaxine were used as reference compounds.

[2] = tested on: mouse; test: Light-dark box test in the mouse; type: in vivo
Description: The method, which detects anxiolytic activity, follows that described by Crawley (1981, Pharmacol. Biochem. Behav., 15:695-699). Anxiolytics increase the time spent in the light compartment.
Animals were placed in the light compartment of a two-compartment box with one half light and open (25×27×27 cm) and the other half dark and closed (20×27×27 cm). The time spent in each compartment as well as the number of times the animal crossed from one side to the other was scored during a 3-min test. 15 mice were studied per group. The test was performed blind.
Clobazam (32 mg/kg p.o., dispersed in 0.2% w/v hydroxypropylmethyl cellulose in distilled water), administered 1 h before the test, was used as reference substance. Mice in this group received additional administrations of vehicle at 24 h and 5 h before the test in order to maintain experimental blinding.

[3] = 32 mg/kg p.o. −1 h (vehicle at −24 h and −5 h)
[4] = 32 mg/kg p.o. −1 h (vehicle at −24 h, −5 h)
[5] = 32 mg/kg p.o. −1 h (vehicle at −24 h, −5 h), 3-min test
[6] = 10 mg/kg p.o. −24 h, −5 h and −1 h
[7] = 24 mg/kg p.o. −24 h, −5 h and −1 h

CN1C(=O)CC(=O)N(c2ccccc2)c2cc(Cl)ccc21 [Clobazam, clobazam]
Number of marbles covered by sawdust, % change from control [1, 3]: −84% | Number of marbles covered by sawdust, mean ± s.e.m. [1, 3]: 2.9 ± 1.2 | Number of crossings, % change from control [2, 4]: +6% | Time spent in light compartment, % change from control [2, 4]: +75% | Number of crossings, mean ± s.e.m. [2, 5]: 11.9 ± 1.8 NS | Time spent in light compartment, mean ± s.e.m. [2, 5]: 125.5 ± 6.4 s | Sedation (animals/group) ([2]; 32 mg/kg p.o., mouse): 2/15

CNCCC(Oc1ccc(C(F)(F)F)cc1)c1ccccc1 (stereo not shown) [Fluoxetine, fluoxetine]
Number of marbles covered by sawdust, % change from control [1, 6]: −58% | Number of marbles covered by sawdust, mean ± s.e.m. [1, 6]: 7.6 ± 1.6

COc1ccc(C(CN(C)C)C2(O)CCCCC2)cc1 (stereo not shown) [Venlafaxine, venlafaxine]
Number of marbles covered by sawdust, % change from control [1, 7]: −47% | Number of marbles covered by sawdust, mean ± s.e.m. [1, 7]: 9.5 ± 1.8 | Dead after the first administration (animals/group) ([1]; 24 mg/kg p.o., mouse): #dead after the first administration ( 1/15) and after the second administration ( 1/15). | Dead after the second administration (animals/group) ([1]; 24 mg/kg p.o., mouse): #dead after the first administration ( 1/15) and after the second administration ( 1/15).
